#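 Each compound was tested at five concentrations against cells in 96-well plates for 48 hours. Here, GI50 denotes the concentration required for 50% inhibition of growth. At the TGI there is no net growth.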
# Legend:
# Assay in all cases: NCI tumour cell line growth inhibition, 48 h
# SK-MEL-28 melanoma = tested on: SK-MEL-28 melanoma
# A549 NSCLC = tested on: A549 NSCLC
# T-47D breast = tested on: T-47D breast
# MDA-MB-435 = tested on: MDA-MB-435
# SN12C renal = tested on: SN12C renal
# OVCAR-5 ovarian = tested on: OVCAR-5 ovarian
# HS 578T breast = tested on: HS 578T breast
# NCI-H460 lung = tested on: NCI-H460 lung
# MDA-N = tested on: MDA-N
# CCRF-CEM leukemia = tested on: CCRF-CEM leukemia
# HT29 colon = tested on: HT29 colon
# PC-3 prostate = tested on: PC-3 prostate
# RXF 393 renal = tested on: RXF 393 renal
# OVCAR-4 ovarian = tested on: OVCAR-4 ovarian
# MCF7 breast = tested on: MCF7 breast
# TK-10 renal = tested on: TK-10 renal
# UO-31 renal = tested on: UO-31 renal
# SK-MEL-5 melanoma = tested on: SK-MEL-5 melanoma
# EKVX NSCLC = tested on: EKVX NSCLC
# HL-60(TB) leukemia = tested on: HL-60(TB) leukemia
# A498 renal = tested on: A498 renal
# HCT-15 colon = tested on: HCT-15 colon
# SK-MEL-2 melanoma = tested on: SK-MEL-2 melanoma
# OVCAR-3 ovarian = tested on: OVCAR-3 ovarian
# SF-295 CNS = tested on: SF-295 CNS
# SNB-19 CNS = tested on: SNB-19 CNS
# IGROV1 ovarian = tested on: IGROV1 ovarian
# SF-268 CNS = tested on: SF-268 CNS
# NCI-H522 lung = tested on: NCI-H522 lung
# SNB-75 CNS = tested on: SNB-75 CNS
# OVCAR-8 ovarian = tested on: OVCAR-8 ovarian
# SR leukemia = tested on: SR leukemia
# MOLT-4 leukemia = tested on: MOLT-4 leukemia
# DU-145 prostate = tested on: DU-145 prostate
# SW-620 colon = tested on: SW-620 colon
# CAKI-1 renal = tested on: CAKI-1 renal
# NCI-H226 lung = tested on: NCI-H226 lung
# MDA-MB-231 breast = tested on: MDA-MB-231 breast
# HOP-62 NSCLC = tested on: HOP-62 NSCLC
# U251 CNS = tested on: U251 CNS
# LOX IMVI melanoma = tested on: LOX IMVI melanoma
# SK-OV-3 ovarian = tested on: SK-OV-3 ovarian
# UACC-62 melanoma = tested on: UACC-62 melanoma
# NCI/ADR-RES ovarian = tested on: NCI/ADR-RES ovarian
# M14 melanoma = tested on: M14 melanoma
# KM12 colon = tested on: KM12 colon
# COLO 205 colon = tested on: COLO 205 colon
# SF-539 CNS = tested on: SF-539 CNS
# NCI-H23 lung = tested on: NCI-H23 lung
# ACHN renal = tested on: ACHN renal
# HCT-116 colon = tested on: HCT-116 colon
# RPMI-8226 leukemia = tested on: RPMI-8226 leukemia
# HCC-2998 colon = tested on: HCC-2998 colon
# MALME-3M melanoma = tested on: MALME-3M melanoma
# K-562 leukemia = tested on: K-562 leukemia
# 786-0 renal = tested on: 786-0 renal
# UACC-257 melanoma = tested on: UACC-257 melanoma
# BT-549 breast = tested on: BT-549 breast
# HOP-92 NSCLC = tested on: HOP-92 NSCLC
smiles,measurement,setting,value
COc1cc(N/N=C/C#N)cc(OC)c1OC,TGI,SK-MEL-28 melanoma,> 10 µM
same,TGI,A549 NSCLC,> 10 µM
same,TGI,T-47D breast,> 10 µM
same,TGI,MDA-MB-435,> 10 µM
same,TGI,SN12C renal,> 10 µM
same,TGI,OVCAR-5 ovarian,> 10 µM
same,TGI,HS 578T breast,> 10 µM
same,TGI,NCI-H460 lung,> 10 µM
same,TGI,MDA-N,> 10 µM
same,TGI,CCRF-CEM leukemia,> 10 µM
same,TGI,HT29 colon,> 10 µM
same,TGI,PC-3 prostate,> 10 µM
same,TGI,RXF 393 renal,> 10 µM
same,TGI,OVCAR-4 ovarian,> 10 µM
same,TGI,MCF7 breast,> 10 µM
same,TGI,TK-10 renal,> 10 µM
same,TGI,UO-31 renal,> 10 µM
same,TGI,SK-MEL-5 melanoma,> 10 µM
same,TGI,EKVX NSCLC,> 10 µM
same,TGI,HL-60(TB) leukemia,5.64 µM
same,TGI,A498 renal,> 10 µM
same,TGI,HCT-15 colon,> 10 µM
same,TGI,SK-MEL-2 melanoma,> 10 µM
same,TGI,OVCAR-3 ovarian,> 10 µM
same,TGI,SF-295 CNS,> 10 µM
same,TGI,SNB-19 CNS,> 10 µM
same,TGI,IGROV1 ovarian,> 10 µM
same,TGI,SF-268 CNS,> 10 µM
same,TGI,NCI-H522 lung,3.68 µM
same,TGI,SNB-75 CNS,> 10 µM
same,TGI,OVCAR-8 ovarian,> 10 µM
same,TGI,SR leukemia,> 10 µM
same,TGI,MOLT-4 leukemia,> 10 µM
same,TGI,DU-145 prostate,> 10 µM
same,TGI,SW-620 colon,> 10 µM
same,TGI,CAKI-1 renal,> 10 µM
same,TGI,NCI-H226 lung,> 10 µM
same,TGI,MDA-MB-231 breast,> 10 µM
same,TGI,HOP-62 NSCLC,> 10 µM
same,TGI,U251 CNS,> 10 µM
same,TGI,LOX IMVI melanoma,3.24 µM
same,TGI,SK-OV-3 ovarian,> 10 µM
same,TGI,UACC-62 melanoma,> 10 µM
same,TGI,NCI/ADR-RES ovarian,> 10 µM
same,TGI,M14 melanoma,> 10 µM
same,TGI,KM12 colon,> 10 µM
same,TGI,COLO 205 colon,> 10 µM
same,TGI,SF-539 CNS,> 10 µM
same,TGI,NCI-H23 lung,> 10 µM
same,TGI,ACHN renal,> 10 µM
same,TGI,HCT-116 colon,> 10 µM
same,TGI,RPMI-8226 leukemia,5.68 µM
same,TGI,HCC-2998 colon,> 10 µM
same,TGI,MALME-3M melanoma,> 10 µM
same,TGI,K-562 leukemia,> 10 µM
O=C(Nc1ccc(Cl)cc1F)c1cc(I)ccc1O,GI50,SK-MEL-28 melanoma,0.487 µM
same,TGI,SK-MEL-28 melanoma,3.38 µM
same,GI50,A549 NSCLC,2.88 µM
same,TGI,A549 NSCLC,> 100 µM
same,GI50,T-47D breast,1.44 µM
same,TGI,T-47D breast,6.3 µM
same,GI50,MDA-MB-435,2.08 µM
same,TGI,MDA-MB-435,7.9 µM
same,GI50,SN12C renal,1.01 µM
same,TGI,SN12C renal,7.62 µM
same,GI50,OVCAR-5 ovarian,4.21 µM
same,TGI,OVCAR-5 ovarian,> 100 µM
same,GI50,HS 578T breast,1.14 µM
same,TGI,HS 578T breast,7.29 µM
same,GI50,NCI-H460 lung,1.5 µM
same,TGI,NCI-H460 lung,14.2 µM
same,GI50,CCRF-CEM leukemia,2.78 µM
same,TGI,CCRF-CEM leukemia,9.77 µM
same,GI50,HT29 colon,3.57 µM
same,TGI,HT29 colon,> 100 µM
same,GI50,PC-3 prostate,2.07 µM
same,TGI,PC-3 prostate,6.36 µM
same,GI50,786-0 renal,2.98 µM
same,TGI,786-0 renal,9.24 µM
same,GI50,RXF 393 renal,1.57 µM
same,TGI,RXF 393 renal,5.2 µM
same,GI50,OVCAR-4 ovarian,2.04 µM
same,TGI,OVCAR-4 ovarian,15.5 µM
same,GI50,MCF7 breast,2.38 µM
same,TGI,MCF7 breast,18.5 µM
same,GI50,TK-10 renal,4.21 µM
same,TGI,TK-10 renal,16.1 µM
same,GI50,UO-31 renal,0.385 µM
same,TGI,UO-31 renal,3.18 µM
same,GI50,SK-MEL-5 melanoma,1.12 µM
same,TGI,SK-MEL-5 melanoma,2.53 µM
same,GI50,EKVX NSCLC,1.62 µM
same,TGI,EKVX NSCLC,8.8 µM
same,GI50,HL-60(TB) leukemia,1.66 µM
same,TGI,HL-60(TB) leukemia,6.87 µM
same,GI50,A498 renal,0.269 µM
same,TGI,A498 renal,0.846 µM
same,GI50,HCT-15 colon,2.41 µM
same,TGI,HCT-15 colon,10.2 µM
same,GI50,SK-MEL-2 melanoma,0.836 µM
same,TGI,SK-MEL-2 melanoma,4.25 µM
same,GI50,OVCAR-3 ovarian,1.66 µM
same,TGI,OVCAR-3 ovarian,16.1 µM
same,GI50,SF-295 CNS,1.89 µM
same,TGI,SF-295 CNS,3.75 µM
same,GI50,SNB-19 CNS,0.714 µM
same,TGI,SNB-19 CNS,92 µM
same,GI50,IGROV1 ovarian,1.51 µM
same,TGI,IGROV1 ovarian,50.4 µM
same,GI50,SF-268 CNS,1.67 µM
same,TGI,SF-268 CNS,15.1 µM
same,GI50,NCI-H522 lung,1.14 µM
same,TGI,NCI-H522 lung,10.5 µM
same,GI50,SNB-75 CNS,0.187 µM
same,TGI,SNB-75 CNS,2.82 µM
same,GI50,UACC-257 melanoma,0.812 µM
same,TGI,UACC-257 melanoma,6.64 µM
same,GI50,BT-549 breast,0.735 µM
same,TGI,BT-549 breast,2.64 µM
same,GI50,OVCAR-8 ovarian,2.02 µM
same,TGI,OVCAR-8 ovarian,9.96 µM
same,GI50,SR leukemia,1.5 µM
same,TGI,SR leukemia,> 100 µM
same,GI50,HOP-92 NSCLC,0.171 µM
same,TGI,HOP-92 NSCLC,0.679 µM
same,GI50,MOLT-4 leukemia,2.41 µM
same,TGI,MOLT-4 leukemia,6.89 µM
same,GI50,DU-145 prostate,3.1 µM
same,TGI,DU-145 prostate,47.9 µM
same,GI50,SW-620 colon,2.44 µM
same,TGI,SW-620 colon,13.6 µM
same,GI50,CAKI-1 renal,1.28 µM
same,TGI,CAKI-1 renal,5.73 µM
same,GI50,NCI-H226 lung,1.94 µM
same,TGI,NCI-H226 lung,7.14 µM
same,GI50,MDA-MB-231 breast,1.67 µM
same,TGI,MDA-MB-231 breast,7.49 µM
same,GI50,HOP-62 NSCLC,2.35 µM
same,TGI,HOP-62 NSCLC,8.04 µM
same,GI50,U251 CNS,1.64 µM
same,TGI,U251 CNS,21.2 µM
same,GI50,LOX IMVI melanoma,1.42 µM
same,TGI,LOX IMVI melanoma,6.79 µM
same,GI50,SK-OV-3 ovarian,0.132 µM
same,TGI,SK-OV-3 ovarian,1.24 µM
same,GI50,UACC-62 melanoma,0.448 µM
same,TGI,UACC-62 melanoma,2.19 µM
same,GI50,NCI/ADR-RES ovarian,2.02 µM
same,TGI,NCI/ADR-RES ovarian,8.68 µM
same,GI50,M14 melanoma,0.711 µM
same,TGI,M14 melanoma,5.57 µM
same,GI50,KM12 colon,2.15 µM
same,TGI,KM12 colon,4.98 µM
same,GI50,COLO 205 colon,4.52 µM
same,TGI,COLO 205 colon,17.5 µM
same,GI50,SF-539 CNS,1.1 µM
same,TGI,SF-539 CNS,5.78 µM
same,GI50,NCI-H23 lung,1.78 µM
same,TGI,NCI-H23 lung,6.59 µM
same,GI50,ACHN renal,1.81 µM
same,TGI,ACHN renal,10.1 µM
same,GI50,HCT-116 colon,1.22 µM
same,TGI,HCT-116 colon,2.87 µM
same,GI50,RPMI-8226 leukemia,0.737 µM
same,TGI,RPMI-8226 leukemia,5.01 µM
same,GI50,HCC-2998 colon,3.1 µM
same,TGI,HCC-2998 colon,11.9 µM
same,GI50,MALME-3M melanoma,0.608 µM
same,TGI,MALME-3M melanoma,3.87 µM
same,GI50,K-562 leukemia,1.09 µM
same,TGI,K-562 leukemia,> 100 µM

# From PubChem BioAssay (NCI)
